Measurements taken from patent EP0403301B1, “Aerosols of pyrido[1,2-a]pyrimidine compounds” (TOKYO TANABE COMPANY LIMITED, priority 1989, dated 1990).
In brackets after ≈: the same amount, converted by molar mass.

Columns and labels:
Assay type in all cases: physicochemical
[1] = dispersibility and cohesiveness of fine particles in propellant with dispersant (naked eye); details: AS-148 in place of AS-35
Procedure: First of all, a series of experiments were carried out to evaluate the effectiveness of conventional dispersants. More specifically, various ester forms of non-ionic surfactants which are non-irritating to the site of application were tested by using an aerosol composition consisting of finely powdered AS-35 and a propellant comprising a 4:6 mixture of Freon 11 and Freon 12. Thus, the solubility of the dispersants in the propellant, the dispersibility of fine particles, the cohesiveness of fine particles, and variation in the amount delivered were examined.
Among the aforesaid test items, the solubility of a dispersant in the propellant was evaluated by placing 90 mg of the dispersant in a transparent container made of polyethylene terephthalate (hereinafter referred to as PET), attaching a valve thereto, injecting the propellant (i.e., a 4:6 mixture of Freon 11 and Freon 12) thereinto until the contents amounted to 12.0 g, shaking the container vigorously, and then observing the contents with the naked eye. […]

solubility in water = assay: solubility in water
Procedure: (§1) Inhalations for use as antiallergic agents include aqueous solution type aerosol inhalations, solution type aerosol inhalations and suspension type aerosol inhalations. The solubilities of pyrido[1,2-a]pyrimidine compounds in water are very low. For example, the solubility of 9-[(4-acetyl-3-hydroxy-2-n-propylphenoxy)methyl]-3-(1H-tetrazol-5-yl)-4H-pyrido[1,2-a]pyrimidin-4-one (hereinafter referred to as AS-35) in water is as low as 0.4 µg/ml. Accordingly, it would be impractical to prepare an aqueous solution type aerosol inhalation of AS-35, because this would require massive containers and devices. Moreover, in order to prepare a solution type aerosol inhalation of a pyrido[1,2-a]pyrimidine compound, it must be dissolved in a propellant or a mixture of a propellant and a commonly used solubilizing agent. […] Moreover, AS-35 is also insoluble in mixtures of such propellants and commonly used solubilizing agents. Thus, it is impossible to prepare a solution type aerosol inhalation of AS-35.

[2] = solubility in propellants and in propellant/solubilizing agent mixtures; details: Freon 11, 12, 13, 21, 22, 113, 114, 115, 123, 124, 132b, 133a, 134a, 141b, 142b, 152a, 225ca, 225cb, C318
Procedure: as §1

CCCc1c(OCc2cccn3c(=O)c(CC(=O)O)cnc23)ccc(C(C)=O)c1O [AS-148, [9-(4-acetyl-3-hydroxy-2-n-propylphenoxymethyl)-4-oxo-pyrido[1,2-a]pyrimidin-3-yl]-acetic acid]
results of Table 1 (dispersibility, cohesiveness with conventional dispersants) [1]: exactly the same results as AS-35

CCCc1c(OCc2cccn3c(=O)c(-c4nnn[nH]4)cnc23)ccc(C(C)=O)c1O [AS-35, 9-[(4-acetyl-3-hydroxy-2-n-propylphenoxy)methyl]-3-(1H-tetrazol-5-yl)-4H-pyrido[1,2-a]pyrimidin-4-one]
solubility (solubility in water): 0.4 µg/mL (≈ 0.951 µM) | solubility in commonly used propellants [2]: entirely insoluble
